In PubChem BioAssay (NCI) one finds GI50 and TGI data, which are given here for twelve molecules.

Test systems include ACHN renal; HL-60(TB) leukemia; IGROV1 ovarian; KM12 colon; LOX IMVI melanoma; NCI/ADR-RES ovarian; OVCAR-5 ovarian; OVCAR-8 ovarian; TK-10 renal; UO-31 renal.
Experiment in all cases: NCI anticancer screen, dose series, 48 h

Several values for one entry are separate records, joined by “and”; a condition that tells them apart may be missing. Identical values can stand only once.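 Following 48 hours of exposure in 96-well plates, responses at five concentrations were used to interpolate endpoints linearly. GI50 is the concentration that inhibits growth by half. TGI: concentration producing complete growth inhibition.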

In the case of `CC(=O)C1=C(O)C=C2Oc3c(C(=O)/C=C/c4cc(C(F)(F)F)cc(C(F)(F)F)c4)c(O)c(C)c(O)c3[C@]2(C)C1=O`, the GI50 in the assay with ACHN renal is 0.552 µM; in the assay on HL-60(TB) leukemia, 0.401 µM; with IGROV1 ovarian it was 0.671 µM; in the assay on KM12 colon, 0.658 µM; in the assay with LOX IMVI melanoma it was 0.511 µM; in the assay with NCI/ADR-RES ovarian, 0.5 µM. For the same molecule, the GI50 in the assay with OVCAR-5 ovarian is 0.757 µM; in the assay on OVCAR-8 ovarian, 0.496 µM; in the assay on TK-10 renal it was 0.587 µM; in the assay on UO-31 renal it was 0.438 µM. The TGI in the assay with ACHN renal was 2.26 µM; in the assay with HL-60(TB) leukemia, 1.14 µM; in the assay on IGROV1 ovarian it was 8.83 µM; with KM12 colon it was 3.23 µM; in the assay with LOX IMVI melanoma, 1.89 µM; with NCI/ADR-RES ovarian it was 2.93 µM. Also, the TGI with OVCAR-5 ovarian came out at 4.46 µM; in the assay on OVCAR-8 ovarian, 1.91 µM; in the assay on TK-10 renal, 8.23 µM; with UO-31 renal it was 2.05 µM.
As to `CC(=O)N1CCN(C2=Nc3ccccc3CO2)C1=S`, the GI50 with ACHN renal was more than 100 µM; in the assay on HL-60(TB) leukemia it was 59.7 µM; with IGROV1 ovarian it was 18.3 µM; in the assay on KM12 colon it was more than 100 µM; in the assay on LOX IMVI melanoma, 52.4 µM; in the assay with NCI/ADR-RES ovarian, more than 100 µM. Moreover, the GI50 with OVCAR-5 ovarian is 85.8 µM; in the assay on OVCAR-8 ovarian, more than 100 µM; with TK-10 renal, more than 100 µM; with UO-31 renal it was more than 100 µM. Moreover, the TGI with ACHN renal is more than 100 µM; with HL-60(TB) leukemia, more than 100 µM; with IGROV1 ovarian, 58.1 µM; with KM12 colon, more than 100 µM; in the assay on LOX IMVI melanoma it was more than 100 µM; in the assay on NCI/ADR-RES ovarian, more than 100 µM. Besides, the TGI in the assay on OVCAR-5 ovarian, in the assay with OVCAR-8 ovarian, with TK-10 renal and with UO-31 renal was more than 100 µM each time.
For `Cc1[nH]ncc1-c1cc2nc(C3CC4CCN3CC4)[nH]c(=O)c2s1` (stereo not drawn), the GI50 with ACHN renal is 1.88 µM; in the assay on HL-60(TB) leukemia it was 2.06 µM; in the assay on IGROV1 ovarian it was 3.47 µM; with KM12 colon, 4.07 µM; in the assay with LOX IMVI melanoma it was 1.46 µM; in the assay with NCI/ADR-RES ovarian it was 11.8 µM. Moreover, the GI50 in the assay with OVCAR-5 ovarian was 3.33 µM; in the assay with OVCAR-8 ovarian, 3.2 µM; in the assay with TK-10 renal, 1.9 µM; with UO-31 renal, 2.91 µM. In addition, the TGI is more than 100 µM in the assay on ACHN renal; 6.15 µM with HL-60(TB) leukemia; more than 100 µM in the assay on IGROV1 ovarian; more than 100 µM with KM12 colon; 21.1 µM in the assay on LOX IMVI melanoma; more than 100 µM in the assay on NCI/ADR-RES ovarian. Also, the TGI in the assay on OVCAR-5 ovarian, with OVCAR-8 ovarian, in the assay on TK-10 renal and in the assay on UO-31 renal was more than 100 µM throughout.
In the case of `OCCOc1ccc(-c2cc(-c3ccccn3)nc(-c3ccccn3)c2)cc1`, the TGI is 3.78 µM in the assay with ACHN renal; 0.494 µM in the assay with HL-60(TB) leukemia; more than 100 µM in the assay on IGROV1 ovarian; more than 100 µM in the assay on KM12 colon; 6.43 µM with LOX IMVI melanoma; 2.4 µM with NCI/ADR-RES ovarian. The TGI is 12.1 µM in the assay on OVCAR-5 ovarian, 2.6 µM in the assay on OVCAR-8 ovarian, more than 100 µM in the assay with TK-10 renal and 1 µM with UO-31 renal.
For the molecule `Cc1ccccc1NC(=S)Nc1ccccn1`, the GI50 with ACHN renal, in the assay on HL-60(TB) leukemia, with IGROV1 ovarian, with KM12 colon, in the assay with LOX IMVI melanoma and in the assay on NCI/ADR-RES ovarian was more than 100 µM in each case. Besides, the GI50 in the assay on OVCAR-5 ovarian, in the assay on OVCAR-8 ovarian, in the assay with TK-10 renal and with UO-31 renal was more than 100 µM each time. Also, the TGI with ACHN renal, in the assay with HL-60(TB) leukemia, with IGROV1 ovarian, in the assay with KM12 colon, in the assay with LOX IMVI melanoma and in the assay with NCI/ADR-RES ovarian was more than 100 µM in each case. Further, the TGI with OVCAR-5 ovarian, with OVCAR-8 ovarian, in the assay with TK-10 renal and in the assay with UO-31 renal was more than 100 µM throughout.
Take `CN1CCc2cc3c(cc2C1O)OCO3` (stereo not drawn): the GI50 with ACHN renal is 19.2 µM and > 100 µM; in the assay with HL-60(TB) leukemia it was 28.8 µM and > 100 µM; with IGROV1 ovarian, 10.7 µM and > 100 µM; with LOX IMVI melanoma, 17.4 µM and > 100 µM; in the assay on NCI/ADR-RES ovarian, 23.5 µM and > 100 µM; in the assay on OVCAR-5 ovarian, 19 µM and > 100 µM. Further, the GI50 in the assay with OVCAR-8 ovarian was 21.6 µM and > 100 µM; in the assay with TK-10 renal, 19.7 µM and > 100 µM; with UO-31 renal it was 17.4 µM and > 100 µM. Also, the TGI in the assay on ACHN renal was 36.2 µM and > 100 µM; in the assay with HL-60(TB) leukemia it was 69.9 µM and > 100 µM; with IGROV1 ovarian, 33.2 µM and > 100 µM; in the assay with KM12 colon it was 22.5 µM and > 100 µM; with LOX IMVI melanoma, 40.3 µM and > 100 µM; in the assay on NCI/ADR-RES ovarian it was 59.5 µM and > 100 µM. For the same molecule, the TGI is 33.3 µM and > 100 µM with OVCAR-5 ovarian; 51.6 µM and > 100 µM with OVCAR-8 ovarian; 39.6 µM and > 100 µM in the assay on TK-10 renal; 37.4 µM and > 100 µM with UO-31 renal.
On to `C[n+]1c(/C=C\C=C\N2CCCCC2)sc2ccccc21`, for which the GI50 with ACHN renal was 4.07 µM; with HL-60(TB) leukemia, 0.166 µM; in the assay on IGROV1 ovarian, 0.84 µM; in the assay on KM12 colon, 0.27 µM; with LOX IMVI melanoma, 0.481 µM; in the assay on NCI/ADR-RES ovarian, 37.6 µM. Also, the GI50 with OVCAR-5 ovarian was 5.2 µM; in the assay on OVCAR-8 ovarian, 0.384 µM; in the assay with TK-10 renal it was 2.19 µM; in the assay on UO-31 renal it was 13.5 µM. The TGI in the assay on ACHN renal was more than 53.4 µM; in the assay with HL-60(TB) leukemia, 0.737 µM; with IGROV1 ovarian, 33.8 µM; in the assay on KM12 colon it was 3.02 µM; in the assay on LOX IMVI melanoma, 12.9 µM; with NCI/ADR-RES ovarian, more than 100 µM. For the same molecule, the TGI in the assay on OVCAR-5 ovarian is more than 35.2 µM; with OVCAR-8 ovarian it was 5.01 µM; with TK-10 renal, 16.5 µM; in the assay on UO-31 renal it was more than 71.3 µM.
Take `COc1ccc(-c2[nH]ncc2-c2cc3c(c(OC)c2)OCC(=O)N3)cc1`: the GI50 is 0.85 µM with ACHN renal; 0.352 µM with HL-60(TB) leukemia; 0.674 µM with IGROV1 ovarian; 0.36 µM in the assay with KM12 colon; 0.522 µM with LOX IMVI melanoma; 1.43 µM in the assay on NCI/ADR-RES ovarian. Moreover, the GI50 in the assay with OVCAR-5 ovarian is 2.17 µM; with OVCAR-8 ovarian it was 1.17 µM; with TK-10 renal, 7.59 µM; in the assay with UO-31 renal, 1.44 µM. Also, the TGI was more than 100 µM in the assay with ACHN renal; 2.06 µM with HL-60(TB) leukemia; more than 100 µM in the assay on IGROV1 ovarian; 32.8 µM in the assay with KM12 colon; more than 100 µM in the assay with LOX IMVI melanoma; 29.2 µM with NCI/ADR-RES ovarian. The TGI in the assay with OVCAR-5 ovarian was more than 100 µM; in the assay on OVCAR-8 ovarian, more than 50.1 µM; in the assay on TK-10 renal it was more than 100 µM; in the assay on UO-31 renal, 53.8 µM.
For the molecule `COC(=O)[C@@H](NC(=O)NC(=O)NC(=O)CI)C(C)C`, the GI50 with ACHN renal is 1.81 µM; in the assay with HL-60(TB) leukemia, 1.7 µM; with IGROV1 ovarian, 3.87 µM; with KM12 colon, 17.4 µM; in the assay on LOX IMVI melanoma it was 1.69 µM; in the assay on NCI/ADR-RES ovarian, 25.4 µM. Further, the GI50 is 13.2 µM in the assay on OVCAR-5 ovarian, 18.8 µM with OVCAR-8 ovarian, 7.65 µM in the assay on TK-10 renal and 1.67 µM with UO-31 renal. Besides, the TGI in the assay on ACHN renal came out at 3.47 µM; with HL-60(TB) leukemia it was 3.86 µM; in the assay on IGROV1 ovarian it was 13.9 µM; in the assay with KM12 colon it was 33.8 µM; in the assay with LOX IMVI melanoma, 3.33 µM; in the assay on NCI/ADR-RES ovarian, 73 µM. In addition, the TGI was 29.7 µM in the assay with OVCAR-5 ovarian, 41.4 µM with OVCAR-8 ovarian, 20.5 µM in the assay with TK-10 renal and 3.2 µM with UO-31 renal.
Take `CN1CCN(c2ccc(C(=O)Nc3n[nH]c4ccc(Cc5cc(F)cc(F)c5)cc34)c(NC3CCOCC3)c2)CC1`: the GI50 is 2.25 µM and 1.42 µM in the assay with ACHN renal; 1.83 µM and 1.66 µM in the assay with HL-60(TB) leukemia; 0.641 µM and 1.3 µM with IGROV1 ovarian; 0.00436 µM in the assay on KM12 colon; 1.35 µM and 1.34 µM in the assay on LOX IMVI melanoma; 4.81 µM and 2.02 µM in the assay with NCI/ADR-RES ovarian. Further, the GI50 in the assay with OVCAR-5 ovarian is 1.85 µM and 1.31 µM; with OVCAR-8 ovarian, 1.73 µM; with TK-10 renal it was 2.35 µM and 1.42 µM; in the assay with UO-31 renal, 1.03 µM and 1.17 µM. For the same molecule, the TGI is > 10 µM and 2.8 µM in the assay on ACHN renal; 4.19 µM and 3.38 µM in the assay on HL-60(TB) leukemia; 3 µM and 2.72 µM with IGROV1 ovarian; 1.49 µM and 1.12 µM in the assay with KM12 colon; 2.7 µM and 2.69 µM in the assay on LOX IMVI melanoma; > 10 µM and 4.54 µM with NCI/ADR-RES ovarian. Further, the TGI was > 10 µM and 2.73 µM in the assay on OVCAR-5 ovarian; > 10 µM and 3.48 µM in the assay with OVCAR-8 ovarian; > 10 µM and 2.78 µM in the assay with TK-10 renal; 2.28 µM and 2.61 µM in the assay with UO-31 renal.
As to `Cc1c2cnccc2c(C)c2c1c1cc(C3OCCCO3)ccc1n2C`, the GI50 in the assay on ACHN renal was 0.318 µM; with HL-60(TB) leukemia, 0.375 µM; in the assay with IGROV1 ovarian, 0.337 µM; in the assay with KM12 colon it was 0.5 µM; with LOX IMVI melanoma it was 0.146 µM; in the assay on NCI/ADR-RES ovarian, 0.157 µM. The GI50 was 0.436 µM in the assay on OVCAR-5 ovarian, 0.139 µM in the assay with OVCAR-8 ovarian, 0.541 µM in the assay with TK-10 renal and 0.278 µM in the assay with UO-31 renal. The TGI in the assay on ACHN renal stood at 2.04 µM; in the assay on HL-60(TB) leukemia, 1.77 µM; in the assay on IGROV1 ovarian, 2.37 µM; in the assay on KM12 colon, 3.77 µM; with LOX IMVI melanoma, 0.659 µM; in the assay on NCI/ADR-RES ovarian, 1.83 µM. The TGI with OVCAR-5 ovarian was 3.7 µM; in the assay on OVCAR-8 ovarian, 1.95 µM; in the assay on TK-10 renal, 4.14 µM; with UO-31 renal, 2.27 µM.
On to `Cc1ccc(NCCCN2CCN(CCCNc3ccc(C)c4sc5ccccc5c(=O)c34)CC2)c2c(=O)c3ccccc3sc12`, for which the TGI in the assay on ACHN renal, in the assay on HL-60(TB) leukemia, in the assay on IGROV1 ovarian, in the assay on KM12 colon, in the assay with LOX IMVI melanoma and in the assay on NCI/ADR-RES ovarian was more than 100 µM each time. Besides, the TGI in the assay with OVCAR-5 ovarian, in the assay with OVCAR-8 ovarian and with UO-31 renal was more than 100 µM each time.
